{"source": "patent EP1799188B1", "about": "“USE OF PEPTIDES AS AN ANTIOXIDANT AGENT FOR THE PREPARATION OF A COSMETIC AND/OR PHARMACEUTICAL COMPOSITION” (Ashland Specialties France, priority 2004, dated 2015)", "system": "fibroblastes primaires", "assay": "Neutral red uptake cytotoxicity / cell viability test", "type": "cell-based", "conditions": "actif 1 %", "experimental": "Des fibroblastes primaires sont ensemencés sur une plaque 96 puits (à 20000 cellules par puits environ). Une fois que les cellules ont atteint 70 % de confluence, le dipeptide dimérisé Cys-Gly selon l'invention, dilué à 1 %, est appliqué sur la plaque durant 24 heures. Une moitié de la plaque est alors irradiée par des UVB à 100 mJ/cm^2 et l'autre moitié non irradiée. Les cellules sont ensuite remises en culture pendant 24 h en présence de l'actif, puis incubées en présence de rouge neutre.\nLe rouge neutre (un colorant « supravital ») se fixe spécifiquement aux lysosomes des cellules vivantes, la coloration sera ainsi proportionnelle à la viabilité des cellules. Après l'ajout d'une solution de révélation, solubilisant le rouge neutre, l'absorbance est mesurée à 540 nm.\nLes résultats obtenus, représentés dans le tableau ci-dessous, représentent le pourcentage de viabilité cellulaire en fonction des différentes conditions étudiées, par rapport à la condition contrôle.", "data": [{"smiles": "N[C@@H](CSSC[C@H](N)C(=O)NCC(=O)O)C(=O)NCC(=O)O", "note": "[actif]", "values": [{"measurement": "cytotoxicité (nocivité pour les cellules)", "result": "n'est pas nocif pour les cellules"}]}]}
